Experimental data: ChEMBL document CHEMBL1158794, “A cytotoxic xanthone dimer from the entomopathogenic fungus Aschersonia sp. BCC 8401” (J Nat Prod, 2005)
In brackets after ≈: the same amount, converted by molar mass.

Experiments:
[1] = system: Plasmodium falciparum; experiment: Antiplasmodial activity against multidrug-resistant Plasmodium falciparum K1 by [3H]hypoxanthine uptake; format: functional, organism-based
[2] = system: Vero; experiment: Cytotoxicity against african green monkey Vero cells by SRB assay; format: cell-based; details: Chlorocebus sabaeus
[3] = system: KB; experiment: Cytotoxicity against human KB cells by SRB assay; format: functional, cell-based
[4] = Cytotoxicity against human BC cells by SRB assay; format: functional, cell-based
[5] = system: NCI-H187; experiment: Cytotoxicity against human NCI-H187 cells by SRB assay; format: functional, cell-based

CO[C@H]1CC=C2C(=O)c3c(cc(C)c(-c4c(C)cc5c(c4O)C(=O)C4=CC[C@H](OC)[C@@H](O)[C@]4(C)O5)c3O)O[C@@]2(C)[C@@H]1O [ASCHERXANTHONE A]
IC50 [1]: 0.2 µg/mL (≈ 0.346 µM) | IC50 [2]: 0.8 µg/mL (≈ 1.38 µM) | IC50 [3]: 1.7 µg/mL (≈ 2.94 µM) | IC50 [4]: 1.7 µg/mL (≈ 2.94 µM) | IC50 [5]: 0.16 µg/mL (≈ 0.277 µM)
